The text below walks through data of patent US20200157144A1, “ANTIMICROBIAL PEPTIDOMIMETICS” (priority 2017, published 2020).

Holding throughout (assay): microbe, parasite or virus in culture
Test [1] concerns S. aureus (ATCC BAA-1556). To be noted: Staphylococcus aureus, ATCCBAA1556, 24 h, read-out: Mean MIC. The protocol: S. aureus (BAA-1556) was from ATCC. Mupirocin (Cat # M2955) was purchased from TCI chemicals (India) Pvt. […] Ltd, India, Cation adjusted Mueller Hinton broth (CAMHB) and Mueller Hinton Agar (MHA) (Cat # M1657) were from HiMedia Laboratories Pvt. Ltd, India.
The MIC assay was done based on CLSI guidelines in a microtitre plate format (1, 2). Preparation and dilution of Test Item (TI) stock solutions: A 1280 μg/ml stock of Compound 34 was prepared by dissolving 1.28 mg in 1.0 ml of sterile water to obtain the Master Stock (MS) solution. The MS solution was diluted 2-fold to obtain a series of Working Stock (WS) solutions (Table 7). The final concentration of solvent in the assay was 2.5% and the assay volume was […].
Preparing the inoculum: One day before initiation of experiment, an isolated colony of S. aureus (ATCC BAA-1556) was inoculated into sterile CAMHB and incubated at 37° C. to exponential phase. After incubation, the turbidity was adjusted to that of a 0.5 McFarland Standard (approximately equivalent to 1.0×10^8 CFU/ml) and diluted to ˜1.0×10^6 CFU/ml.
MIC Assay: The MIC assay was performed in a 96 well microtitre plate in a total assay volume of 100 μl (Table 7). Each well containing different concentrations of test compound (concentration range between 0.015625 and 16.0 μg/ml) was inoculated with 50 μl of bacterial suspension (prepared from the inoculum grown overnight and adjusted approximately to 5.0×10^5 CFU/ml) along with culture control (CC, culture in broth), broth control (BC, broth only), and vehicle control (VC, 2.5% solvent in broth plus culture). The plate was incubated at 37° C. for 24 hr and turbidity was measured spectrophotometrically (Absorbance microplate reader, BioTek® India, ELx800™) at 600 nm and visually. The experiment was done in duplicates. The inoculum was also plated for enumeration of bacteria. The MIC was defined as the lowest concentration of test compound that prevented bacterial growth (lack of turbidity by OD at 600 nm and visual inspection relative to no growth control).

The test system of test [2] is S. aureus ECL 2963646. Format: cell-based. To be noted: Staphylococcus aureus, ECL2963646; S. aureus ECL 2963646; CAMHB II; read-out: MIC. The protocol: (§1) The antibacterial potency of Compound 34 was measured using the in vitro broth microdilution assay under assay conditions described by the Clinical and Laboratory Standards Institute. […] The test substance was dissolved in 100% DMSO (unless stated below), suspended completely by sonication or vortexing, diluted by 2-fold serial titrations in the same vehicle, for a total of 11 test concentrations. A 4 μL aliquot of each dilution was added to 196 μL of broth medium seeded with the organism suspension in wells of a 96 well plate (bacterial count: 2-8×10^5 colony forming units/mL final). The final volume was 200 μL in each well and the final DMSO concentration was 2%. The incubation time is 1 day at 36° C. All strains tested underwent aerobic respiration. Following incubation, the test plates were visually examined and wells were scored for growth or complete growth inhibition to define the minimum inhibitory concentration. Each test substance was evaluated in duplicate and the results below are the duplicate test values. Vehicle-control and an active reference agent were used as blank and positive controls, respectively.

For test [3], the system named is S. aureus NARSA VRS2. Format: cell-based. To be noted: Staphylococcus aureus; S. aureus NARSA VRS2; CAMHB II; read-out: MIC. The method, then: as §1
Test [4] has as its system S. aureus NARSA VRS1. It is filed as cell-based. To be noted: Staphylococcus aureus; S. aureus NARSA VRS1; CAMHB II; read-out: MIC. The protocol: as §1
In test [5] the test system is S. aureus NARSA VRS3a. It is filed as cell-based. To be noted: Staphylococcus aureus; S. aureus NARSA VRS3a; CAMHB II; read-out: MIC. The protocol: as §1
Test [6] deals with S. aureus NARSA VRS11b. It is filed as cell-based. To be noted: Staphylococcus aureus; S. aureus NARSA VRS11b; CAMHB II; read-out: MIC. The method, then:
as §1

Test [7] deals with Mupirocin-susceptible MRSA ATCC-BAA-1681 (USA100). It is filed as cell-based, Staphylococcus aureus. To be noted: Staphylococcus aureus. The protocol:
(§2) The MICs of test compounds were determined using the microdilution method from the Clinical and Laboratory Standards Institute (CLSI) guidelines (Clinical and Laboratory Standards Institute. Methods for dilution antimicrobial susceptibility tests for bacteria that grow aerobically; approved standard—ninth edition. Document M07-A9. Vol. 32 No. 2. Wayne, Pa.: CLSI; 2012). Briefly, bacteria were grown fresh from frozen stock in Mueller Hinton 2 (MH2) agar at 37° C. After an overnight incubation, 5 bacteria colonies were selected to grow in cation-adjusted MH2 broth in a shaking incubator (140 RPM) at 37° C. Cells were grown to an optical density (OD600) of 0.15-0.16 determined using a spectrophotometer (Molecular Devices Spectra Max Plus), which corresponds to ˜1×10^8 CFU/mL. Test compounds were constituted into 4 mM DMSO stock solutions and then subjected to 2-fold serial dilution in a 96-well plate with concentrations ranging from 100 to 0.195 μM in duplicates. […] of microbial culture containing ˜1×10^6 CFU/mL of microbes in the respective broths was introduced into each well containing 50 μL of compound solution. After an overnight incubation at 35° C., (220 RPM), OD600 measurements were conducted using the microplate spectrophotometer. The MIC was defined as the lowest antibiotic or compound concentration (μM) required to inhibit bacteria growth.
(§3) The 11th well was used as the growth control well (medium with bacterial inoculums, no antibacterial) while the 12th well was the sterility control well (medium only).

The test system of test [8] is Mupirocin-resistant MRSA ATCC-BAA-1750 (USA200). It is filed as cell-based, Staphylococcus aureus. To be noted: Staphylococcus aureus. The protocol:
as §2, §3

Test [9] concerns Mupirocin-susceptible MRSA ATCC-BAA-2762 (EMRSA15, ST22). It is filed as cell-based, Staphylococcus aureus. Particulars: Staphylococcus aureus. The method, then:
as §2, §3

Test [10] deals with Mupirocin-susceptible MRSA ATCC-BAA-1756 (USA300). Format: cell-based, Staphylococcus aureus. To be noted: Staphylococcus aureus. The method, then: as §2, §3
In test [11] the test system is Mupirocin-susceptible MRSA ATCC-33592 (ST239). It is filed as cell-based, Staphylococcus aureus. Particulars: Staphylococcus aureus. The method, then: as §2, §3
The test system of test [12] is Mupirocin-resistant MRSA ATCC-BAA-1556. It is filed as cell-based, Staphylococcus aureus. Particulars: Staphylococcus aureus. The method, then:
as §2, §3

In test [13] the test system is Mupirocin-susceptible MRSA ATCC-BAA-1707 (USA400). It is filed as cell-based, Staphylococcus aureus. To be noted: Staphylococcus aureus. The protocol: as §2, §3
Test [14] deals with Mupirocin-susceptible MRSA ATCC-700699 (VISA). Format: cell-based, Staphylococcus aureus. Particulars: Staphylococcus aureus. The method, then:
as §2, §3

For test [15], the system named is Mupirocin-resistant MRSA ATCC-BAA-1708. It is filed as cell-based, Staphylococcus aureus. To be noted: Staphylococcus aureus. The protocol: as §2, §3
For test [16], the system named is Mupirocin-susceptible MRSA ATCC-BAA-1754 (ST45). Format: cell-based, Staphylococcus aureus. To be noted: Staphylococcus aureus. The method, then:
as §2, §3

In test [17] the test system is Propionibacterium acnes ATCC 29399. It is filed as cell-based. Particulars: Cutibacterium acnes, ATCC29399. The method, then: (§4) The antibacterial potency of Compound 34 was measured using the in vitro broth microdilution assay under assay conditions described by the Clinical and Laboratory Standards Institute. […] The test substance was dissolved in 100% DMSO (unless stated below), suspended completely by sonication or vortexing, diluted by 2-fold serial titrations in the same vehicle, for a total of 10 test concentrations (final concentrations: 100, 50, 25, 12.5, 6.25, 3.125, 1.56, 0.78, 0.39, 0.2 μM). A 4 μL aliquot of each dilution was added to 196 μL of broth medium seeded with the organism suspension in wells of a 96 well plate (bacterial count: 2-8×10^5 colony forming units/mL final). The final volume was 200 μL in each well and the final DMSO concentration was 2 percent. The incubation time is either 1 or 2 days at 36° C. All strains tested underwent aerobic respiration, except for ATCC BAA-1805 and ATCC 29399. Following incubation, the test plates were visually examined and wells were scored for growth or complete growth inhibition to define the minimum inhibitory concentration. Each test substance was evaluated in duplicate and the results below are the duplicate test values. Vehicle-control and an active reference agent were used as blank and positive controls, respectively.

For test [18], the system named is Staphylococcus aureus ATCC 19636. It is filed as cell-based. To be noted: Staphylococcus aureus, ATCC19636. The protocol: as §4, with “values.” for “values. Vehicle-control and an active reference agent were used as blank and positive controls, respectively.”
Test [19] deals with Staphylococcus epidermidis ATCC 12228. Format: cell-based. To be noted: Staphylococcus epidermidis, ATCC12228. The protocol: as §4, with “values.” for “values. Vehicle-control and an active reference agent were used as blank and positive controls, respectively.”
In test [20] the test system is Staphylococcus aureus ATCC BAA-1717. Format: cell-based. Particulars: Staphylococcus aureus, ATCCBAA1717. The method, then: as §4, with “values.” for “values. Vehicle-control and an active reference agent were used as blank and positive controls, respectively.”
The mark [21] stands for this setting: Mupirocin-susceptible MRSA ATCC-700699 (VISA), read-out: MIC.

≈ marks a conversion by molar mass, not a printed value. Where “and” joins values, the source holds several entries; their conditions need not be identical. Identical values can stand only once. Like-named read-outs stand apart in the source and are kept apart here.

On to `CC(=O)NC[C@H]1CN(c2ccc(N3CCOCC3)c(F)c2)C(=O)O1` [Linezolid], for which the MIC in test [1] was 1 µg/mL and 2.96 µM; in test [2], 2 µg/mL and 5.93 µM; in test [3] it was 2 µg/mL and 5.93 µM; in [4] it was 2 µg/mL and 5.93 µM; in [5], 4 µg/mL and 11.9 µM; in test [6], 2 µg/mL and 5.93 µM. Further, the MIC in test [7], in test [8], in test [9], in test [10], in test [11] and in [12] was 6.25 µM (≈ 2.11 µg/mL) each time. Moreover, the MIC was 6.25 µM (≈ 2.11 µg/mL) in test [13], 3.12 µM (≈ 1.05 µg/mL) in test [14] (setting [21]), 6.25 µM (≈ 2.11 µg/mL) in test [15] and 6.25 µM (≈ 2.11 µg/mL) in [16].
For `C/C(=C\C(=O)OCCCCCCCCC(=O)O)C[C@@H]1OC[C@H](C[C@@H]2O[C@H]2[C@@H](C)[C@H](C)O)[C@@H](O)[C@H]1O` [Mupirocin], the MIC in [1] is > 16 µg/mL and > 32 µM; in test [7] (Mupirocin-susceptible MRSA ATCC-BAA-1681 (USA100), read-out: MIC), at most 0.2 µM; in test [8] (Mupirocin-resistant MRSA ATCC-BAA-1750 (USA200), read-out: MIC) it was 25 µM (≈ 12.5 µg/mL); in test [9] (Mupirocin-susceptible MRSA ATCC-BAA-2762 (EMRSA15, ST22), read-out: MIC), at most 0.2 µM; in [10] (Mupirocin-susceptible MRSA ATCC-BAA-1756 (USA300), read-out: MIC), at most 0.2 µM; in [11] (Mupirocin-susceptible MRSA ATCC-33592 (ST239), read-out: MIC), at most 0.2 µM. In addition, the MIC was over 100 µM in test [12] (Mupirocin-resistant MRSA ATCC-BAA-1556, cation-adjusted MH2 broth, overnight 35° C., OD600, read-out: MIC); at most 0.2 µM in [13] (Mupirocin-susceptible MRSA ATCC-BAA-1707 (USA400), read-out: MIC); at most 0.2 µM in [14] (setting [21]); over 100 µM in test [15] (Mupirocin-resistant MRSA ATCC-BAA-1708, read-out: MIC); at most 0.2 µM in test [16] (Mupirocin-susceptible MRSA ATCC-BAA-1754 (ST45), read-out: MIC).
With `CN[C@H](CC(C)C)C(=O)N[C@H]1C(=O)N[C@@H](CC(N)=O)C(=O)N[C@H]2C(=O)N[C@H]3C(=O)N[C@H](C(=O)N[C@H](C(=O)O)c4cc(O)cc(O)c4-c4cc3ccc4O)[C@H](O)c3ccc(c(Cl)c3)Oc3cc2cc(c3O[C@@H]2O[C@H](CO)[C@@H](O)[C@H](O)[C@H]2O[C@H]2C[C@](C)(N)[C@H](O)[C@H](C)O2)Oc2ccc(cc2Cl)[C@H]1O` [Vancomycin], the MIC in test [17] is 0.5 µg/mL and 0.35 µM; in [7], 1.56 µM (≈ 2.26 µg/mL); in test [8], 0.78 µM (≈ 1.13 µg/mL); in [9], 0.78 µM (≈ 1.13 µg/mL); in test [10] it was 0.78 µM (≈ 1.13 µg/mL); in test [11] it was 0.78 µM (≈ 1.13 µg/mL). The MIC in [12] is 0.78 µM (≈ 1.13 µg/mL); in [13], 0.78 µM (≈ 1.13 µg/mL); in test [14], 6.25 µM (≈ 9.06 µg/mL); in test [15], 0.78 µM (≈ 1.13 µg/mL); in [16] it was 0.78 µM (≈ 1.13 µg/mL); in [18] it was 1 µg/mL (≈ 0.69 µM). The MIC in [19] and in test [20] was 1 µg/mL (≈ 0.69 µM) throughout.
